Source: ChEMBL document CHEMBL4842375, “Discovery of a Potent Glutathione Peroxidase 4 Inhibitor as a Selective Ferroptosis Inducer” (J Med Chem, 2021)
Active and inactive are the calls of the source. The calls are words filed in the database; no cut-off is given here.

How the values were obtained:
MCF7 = assay: Cytotoxicity against human MCF7 cells assessed as reduction in cell viability incubated for 48 hrs by MTT assay; assay type: functional, cell-based; conditions: MCF7, 48 h
HT-1080 [1] = assay: Cytotoxicity against human HT-1080 cells assessed as reduction in cell viability incubated for 48 hrs in presence of Fer-1 by MTT assay; assay type: functional, cell-based; conditions: HT-1080, 48 h
HT-1080 [2] = assay: Cytotoxicity against human HT-1080 cells assessed as reduction in cell viability incubated for 48 hrs by MTT assay; assay type: functional, cell-based; conditions: HT-1080, 48 h
[3] = Selectivity index, ratio of IC50 for cytotoxicity against human HT-1080 cells in presence of Fer-1 to IC50 for cytotoxicity against human HT-1080 cells; assay type: functional
4T1 [4] = assay: Cytotoxicity against mouse 4T1 cells assessed as reduction in cell viability incubated for 48 hrs by MTT assay; assay type: functional, cell-based; conditions: 4T1, 48 h
4T1 [5] = assay: Effect on intracellular GSH level in mouse 4T1 cells assessed as reduction in GSH level; assay type: functional, cell-based
[6] = molecular target: T1, Phospholipid hydroperoxide glutathione peroxidase GPX4 (Homo sapiens) (UniProt P36969); assay: Inhibition of GPX4 in mouse 4T1 cells assessed as decrease in intracellular GPX4 activity at 5 uM after 6 hrs; assay type: cell-based
T1 sequence (whole entry): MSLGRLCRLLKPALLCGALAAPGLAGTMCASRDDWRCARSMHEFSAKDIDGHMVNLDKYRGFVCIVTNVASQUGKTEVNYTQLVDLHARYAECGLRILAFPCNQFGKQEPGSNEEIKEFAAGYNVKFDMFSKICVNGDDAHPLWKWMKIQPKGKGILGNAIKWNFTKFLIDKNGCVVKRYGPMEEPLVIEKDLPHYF

inhibition [6] [%]	SMILES	IC50 (MCF7) [µM]	IC50 (HT-1080 [1]) [µM]	IC50 (HT-1080 [2]) [µM]	Ratio IC50 [3]	IC50 (4T1 [4]) [µM]	Activity (4T1 [5])
	CCOC(=O)c1ccc(CN(C(=O)CCl)C(C(=O)NCCc2ccccc2)c2c[nH]c3ccccc23)cc1 (stereo not drawn)	14.8	4.4	2.3	1.91	5.86	
	CCOC(=O)c1ccc(N(C(=O)CCl)C(C(=O)NCCc2cccc(OC)c2)c2c[nH]c3ccccc23)cc1 (stereo not drawn)	11.3	4.88	0.41	11.9	2.35	
	CCOC(=O)c1ccc(N(C(=O)CCl)C(C(=O)NCCc2ccccc2)c2csc3ccccc23)cc1 (stereo not drawn)	12.5	4.7	0.28	16.8	1.48	
	CCOC(=O)c1ccc(N(C(=O)CCl)C(C(=O)NCCc2ccccc2)c2cccc3[nH]ccc23)cc1 (stereo not drawn)	14.8	1.3	0.4	3.2	2.96	
	Cc1noc(-c2ccc(N(C(=O)CCl)C(C(=O)NCCc3ccccc3)c3csc4ccccc34)cc2)n1 (stereo not drawn)	8.28	3.5	0.21	16.7	0.75	
	C=CCNC(=O)C(c1c[nH]c2ccccc12)N(C(=O)CCl)c1ccc(C(=O)OCC)cc1 (stereo not drawn)	12.6	4.57	0.74	6.2	2.15	
	CCOC(=O)c1ccc(N(C(=O)CCl)C(C(=O)NCCc2ccccc2)c2c[nH]c3ncccc23)cc1 (stereo not drawn)	6.85	5.3	3.2	1.7	9.3	
	CCOC(=O)c1ccc(N(C(=O)CCl)C(C(=O)NCCc2ccccc2)c2c[nH]c3ccccc23)cc1 (stereo not drawn)	8.71	4.43	0.3	14.7	1.93	
	CCOC(=O)c1ccc(N(C(=O)CCl)C(C(=O)NCCc2ccccc2)c2ccnn2C)cc1 (stereo not drawn)	8.97	2.5	2.1	1.2	10.2	
	CCOC(=O)c1ccc(N(C(=O)CCl)C(C(=O)NCCc2cccc(C(F)(F)F)c2)c2c[nH]c3ccccc23)cc1 (stereo not drawn)	10.3	5.03	0.56	9	2.17	
	CCOC(=O)c1ccc(N(C(=O)CCl)C(C(=O)NC2CCCCC2)c2c[nH]c3ccccc23)cc1 (stereo not drawn)	9.01	3.45	0.93	3.7	4.63	
	CCOC(=O)c1ccc(N(C(=O)CCl)C(C(=O)NCCc2cccc(Cl)c2)c2c[nH]c3ccccc23)cc1 (stereo not drawn)	9.26	4.5	0.37	12.2	1.99	
	CCOC(=O)c1ccc(N(C(=O)CCl)C(C(=O)NC(C)(C)C)c2c[nH]c3ccccc23)cc1 (stereo not drawn)	12.1	4.2	0.43	9.8	3.22	
	COc1ccc(N(C(=O)CCl)C(C(=O)NCCc2ccccc2)c2cccs2)cc1Cl (stereo not drawn)	10.1	7.31	0.66	11.1	2.52	
	CCOC(=O)c1ccc(N(C(=O)CCl)C(C(=O)NCCc2ccccc2)c2cc[nH]n2)cc1 (stereo not drawn)	15.2	4.3	0.7	6.1	4.47	
	CCOC(=O)c1ccc(CN(C(=O)CCl)C(C(=O)NCc2ccccc2)c2c[nH]c3ccccc23)cc1 (stereo not drawn)	20.4	4.9	3	1.63	9.91	
	COc1ccc(N(C(=O)CCl)C(C(=O)NCCc2ccccc2)c2c[nH]c3ccccc23)cc1 (stereo not drawn)	15.3				9.72	
	O=C(NCCc1ccccc1)C(c1c[nH]c2ccccc12)N(C(=O)CCl)c1ccc(-c2nnco2)cc1 (stereo not drawn)	5.92	4.52	0.35	12.9	0.89	
	CCOC(=O)c1ccc(N(C(=O)CCl)C(C(=O)NCc2ccccc2)c2c[nH]c3ccccc23)cc1 (stereo not drawn)	11.9	6.4	1.1	5.8	4.92	
11.8	COC(=O)c1ccc([C@H]2c3[nH]c4ccccc4c3C[C@H](C(=O)OC)N2C(=O)CCl)cc1	13.6	3.7	1.2	3.1	3.69	inactive
	O=C(NCCc1ccccc1)C(c1c[nH]c2ccccc12)N(C(=O)CCl)c1ccc(Br)cc1 (stereo not drawn)	10.9				6.47	
	CCOC(=O)c1ccc(CN(C(=O)CCl)C(C(=O)NC(C)(C)C)c2c[nH]c3ccccc23)cc1 (stereo not drawn)	15.5	16	16	1	9.43	
	O=C(NCCc1ccccc1)C(c1c[nH]c2ccccc12)N(C(=O)CCl)c1ccc(F)cc1 (stereo not drawn)	13.5				9.21	
	CCOC(=O)c1ccc(N(C(=O)CCl)C(C(=O)NCCc2ccc(Cl)cc2)c2c[nH]c3ccccc23)cc1 (stereo not drawn)	16.3	4.31	0.43	10	2.07	
	Cc1noc(-c2ccc(N(C(=O)CCl)C(C(=O)NCCc3ccccc3)c3c[nH]c4ccccc34)cc2)n1 (stereo not drawn)	13.2	4.21	0.33	12.8	1.94	
	CCOC(=O)c1ccc(N(C(=O)CCl)C(C(=O)NCCc2ccccc2Cl)c2c[nH]c3ccccc23)cc1 (stereo not drawn)	13.4	3.21	0.89	3.6	2.31	
	O=C(NCCc1ccccc1)C(c1csc2ccccc12)N(C(=O)CCl)c1ccc(-c2nnco2)cc1 (stereo not drawn)	7.06	3.9	0.2	19.5	0.81	
	O=C(NCCc1ccccc1)C(c1c[nH]c2ccccc12)N(C(=O)CCl)c1ccc(-c2cnco2)cc1 (stereo not drawn)	5.7	3.92	0.16	24.5	1.04	
	N#Cc1ccc(N(C(=O)CCl)C(C(=O)NCCc2ccccc2)c2c[nH]c3ccccc23)cc1 (stereo not drawn)	6.85	4.2	0.75	5.6	9.3	
